Measurements: US9474744B2, “Beta-lactam compounds for treating diabetes” (STEM CELL MEDICINE LTD., priority 2011, dated 2016)
“Also recorded” adds a separate entry of the source.

Legend:
[1] = test system: NOD mice; experiment: Development of autoimmune diabetes in NOD mice; type: in vivo, mouse
Source text: Inbred female Lewis rats and NOD (non-obese diabetic) mice were supplied by the animal breeding center of the Weizmann Institute of Science, Israel, under the supervision of Harlan Laboratories and were used at 2-3 months of age. Experiments were approved by the Institutional Animal Care and Use Committee. Human peripheral blood lymphocytes from healthy donors were obtained from the blood bank of Sheba Medical Center, Tel Hashomer, Israel.
NOD mice spontaneously develop diabetes mellitus similar to type I diabetes in humans. […] The mice were followed for the development of diabetes, marked by blood sugar above 300 mg/dl on 2 measurements.

[2] = biological target: T1, albumin of human CD3 T cells (Homo sapiens, UniProt P02768); experiment: Western blot with Pen 9 antibody of antibiotic-treated human T cells; type: cell-based; conditions: T cells activated by mitogen in presence of antibiotic
T1 construct: endogenous in cells; host or cells: primary human peripheral-blood T cells (CD3+, CD4+ or CD8+) from healthy donors
Experimental: Rat tissues were ground with a tissue grinder in lysis buffer. The homogenate was centrifuged 14000 g for 15 min in 4° C. and the supernatant was used for western blotting. The protein concentration was determined using the BIO-RAD DC™ protein assay (Bio-Rad laboratories, Hercules, Calif.). Following electrophoresis in SDS gel in a mini-gel apparatus (Bio-Rad), the gels were electro-transferred to nitrocellulose membranes (Schleicher and schuell, Dassel, Germany). The nitrocellulose membranes were washed with distilled water for 5 min, and then blocked for 60 min. using a blocking solution composed of 2% bovine serum albumin (Fraction V, Sigma, St. Louis Mo.), 2.5% milk powder (Bio-Rad), Tris (Sigma) pH 7.5 10 mM, NaCl 150 mM and 0.02% thimerosal (Sigma). After 3×10 min. washes in PBS/TWEEN® 20 (PBS/T; 0.02%, Sigma), primary antibodies (1/1000) were incubated with the membranes in PBS/TWEEN® for 60 min. Following another series of washes in PBS/T (3×10 min), the membranes were incubated with a secondary antibody (Peroxidase conjugated anti rabbit or anti mouse, IgG Jackson ImmunoResearch, West Grove, Calif.) at a 1/2500 dilution in 2% milk in PBS solution for 60 min. After another 3×10 min washes, the membranes were incubated with the ECL reagent (for 60 seconds) and exposed to X-ray film.

[3] = test system: CD4+ human T cells; experiment: Real-time PCR verification of six gene-array genes; type: cell-based; conditions: cDNA from the same RNA as the gene array; normalised to B2M
Experimental: To verify the results of the gene array, we synthesized real-time PCR primers (designed with the […]® probe design software (Roche)). Real-time PCR of 6 selected genes was performed using a […]® (Roche, Basel, Switzerland). RNA was reverse transcribed to cDNA from 1 μg of total RNA, which was then subjected to quantitative RT-PCR performed essentially according to the manufacturer's instructions. Specific primer pairs were used to amplify specific genes in the presence of 3 mM MgCl2. PCR was performed in triplicate in a total volume of 20 μl of […]® HotStart DNA SYBR Green I mix (Roche) containing primer and 5 μl of cDNA. […] Denaturation was performed for 15 s at 95° C., annealing was performed in 60° C., and the extension was performed at 72° C. for 20 s, with fluorescence detection at 72° C. after each cycle. After the final cycle, melting point analyses of all samples were performed within the range of 62-95° C. with continuous fluorescence detection. […]
The Human Autoimmune and Inflammatory Response Gene Array (SuperArray Bioscience corporation, Frederick, Md., USA) was used for analysis of gene expression by the T cells. […] To verify the results detected by the gene array study, a panel of six genes was designed and tested by real-time PCR: CCR4, ACVR2, JAK1, STAT4, TLR2 and NFKBIE. […]

[4] = test system: Adjuvant Arthritis (AA) in Lewis rats; experiment: Adjuvant arthritis (AA) in rats, IP antibiotic treatment; type: in vivo, rat; conditions: IP 5 mg (25 mg/kg) once every 2 or 3 days from day 12; versus non-injected control

T1 sequence (P02768 25-609): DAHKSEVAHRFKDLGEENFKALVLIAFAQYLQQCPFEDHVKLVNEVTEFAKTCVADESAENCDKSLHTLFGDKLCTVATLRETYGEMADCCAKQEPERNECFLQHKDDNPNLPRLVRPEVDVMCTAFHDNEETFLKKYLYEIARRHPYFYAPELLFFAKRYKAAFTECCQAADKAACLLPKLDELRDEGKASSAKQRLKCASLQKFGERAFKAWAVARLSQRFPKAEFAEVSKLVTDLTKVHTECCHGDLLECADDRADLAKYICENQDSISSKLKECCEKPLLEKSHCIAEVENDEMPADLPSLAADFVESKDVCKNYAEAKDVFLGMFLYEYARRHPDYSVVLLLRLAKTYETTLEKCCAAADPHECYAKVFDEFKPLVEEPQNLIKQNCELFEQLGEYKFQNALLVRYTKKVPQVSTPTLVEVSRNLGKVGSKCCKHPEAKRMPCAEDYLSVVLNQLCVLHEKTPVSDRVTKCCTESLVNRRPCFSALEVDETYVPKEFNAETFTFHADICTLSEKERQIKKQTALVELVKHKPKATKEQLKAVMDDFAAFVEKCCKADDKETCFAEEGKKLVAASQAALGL

Compound	development of type I diabetes in NOD mice ([1]; FIG. 1D)	incidence of diabetes ([1]; at 5.7 months, s.c. at weekly intervals, ampicillin 1300 μg or ceftriaxone 675 μg per mouse, blood sugar above 300 mg/dl on 2 measurements, control 60%) [%]	Pen 9 reactivity with lysates of antibiotic-treated T cells [2]	expression of CCR4, ACVR2, JAK1, STAT4, TLR2 and NFKBIE by real-time PCR [3]	arthritis scores [4]
CC1(C)S[C@@H]2[C@H](NC(=O)[C@H](N)c3ccccc3)C(=O)N2[C@H]1C(=O)O [ampicillin]	Inhibition of type I diabetes	30	did not bind	–	–
CO/N=C(\C(=O)N[C@@H]1C(=O)N2C(C(=O)O)=C(COC(N)=O)CS[C@H]12)c1ccco1 [cefuroxime]	–	–	–	suppressed	significantly more severe arthritis scores; also recorded: Exacerbation of adjuvant-induced arthritis
